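Dose response: 5 concentrations. Exposure: 48 h. Format: 96-well plates. Endpoint: linear interpolation; highest concentration if not reached. TGI denotes the concentration required for complete inhibition of growth.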
How the values were obtained:
Experiment in all cases: NCI tumour cell line growth inhibition, 48 h
KM20L2 colon = test system: KM20L2 colon
OVCAR-3 ovarian = test system: OVCAR-3 ovarian
HOP-92 NSCLC = test system: HOP-92 NSCLC
SK-MEL-5 melanoma = test system: SK-MEL-5 melanoma
SK-MEL-2 melanoma = test system: SK-MEL-2 melanoma
OVCAR-5 ovarian = test system: OVCAR-5 ovarian
CCRF-CEM leukemia = test system: CCRF-CEM leukemia
HCC-2998 colon = test system: HCC-2998 colon
RPMI-8226 leukemia = test system: RPMI-8226 leukemia
HCT-15 colon = test system: HCT-15 colon
MOLT-4 leukemia = test system: MOLT-4 leukemia
A549 NSCLC = test system: A549 NSCLC
DLD-1 colon = test system: DLD-1 colon
LXFL 529 NSCLC = test system: LXFL 529 NSCLC
HCT-116 colon = test system: HCT-116 colon
A498 renal = test system: A498 renal
M19-MEL melanoma = test system: M19-MEL melanoma
NCI-H460 lung = test system: NCI-H460 lung
HOP-62 NSCLC = test system: HOP-62 NSCLC
HT29 colon = test system: HT29 colon
ACHN renal = test system: ACHN renal
IGROV1 ovarian = test system: IGROV1 ovarian
HOP-18 NSCLC = test system: HOP-18 NSCLC
SF-268 CNS = test system: SF-268 CNS
UACC-257 melanoma = test system: UACC-257 melanoma
EKVX NSCLC = test system: EKVX NSCLC
SR leukemia = test system: SR leukemia
OVCAR-4 ovarian = test system: OVCAR-4 ovarian
SF-539 CNS = test system: SF-539 CNS
CAKI-1 renal = test system: CAKI-1 renal
M14 melanoma = test system: M14 melanoma
SNB-19 CNS = test system: SNB-19 CNS
XF 498 CNS = test system: XF 498 CNS
UACC-62 melanoma = test system: UACC-62 melanoma
UO-31 renal = test system: UO-31 renal
SN12C renal = test system: SN12C renal
TK-10 renal = test system: TK-10 renal
NCI-H226 lung = test system: NCI-H226 lung
DMS 114 small cell lung = test system: DMS 114 small cell lung
786-0 renal = test system: 786-0 renal
SF-295 CNS = test system: SF-295 CNS
KM12 colon = test system: KM12 colon
OVCAR-8 ovarian = test system: OVCAR-8 ovarian
NCI-H23 lung = test system: NCI-H23 lung
SK-MEL-28 melanoma = test system: SK-MEL-28 melanoma
K-562 leukemia = test system: K-562 leukemia
SNB-75 CNS = test system: SNB-75 CNS
HL-60(TB) leukemia = test system: HL-60(TB) leukemia
MALME-3M melanoma = test system: MALME-3M melanoma
SW-620 colon = test system: SW-620 colon
DMS 273 small cell lung = test system: DMS 273 small cell lung
SNB-78 CNS = test system: SNB-78 CNS
RXF 393 renal = test system: RXF 393 renal
LOX IMVI melanoma = test system: LOX IMVI melanoma
U251 CNS = test system: U251 CNS
COLO 205 colon = test system: COLO 205 colon
SK-OV-3 ovarian = test system: SK-OV-3 ovarian
NCI-H522 lung = test system: NCI-H522 lung

Measured: TGI

CC(=O)N(C)c1ccc2ncccc2c1[N+](=O)[O-]
not listed: U251 CNS | COLO 205 colon | SK-OV-3 ovarian | NCI-H522 lung
> 100 µM: all other assays above

Cc1cccc(-c2nnc3s/c(=C\c4ccc5c(c4)OCO5)c(=O)n23)c1
not listed: HT29 colon | SR leukemia
> 100 µM: all other assays above

CC#CC(OCC)(OCC)OCC
39.9 µM: LOX IMVI melanoma
49.1 µM: DMS 273 small cell lung
74.3 µM: DMS 114 small cell lung
not listed: SW-620 colon
> 100 µM: all other assays above

Cc1cn(C2CC(n3cncn3)C(C(C)O)O2)c(=O)[nH]c1=O (stereo unspecified)
not listed: A498 renal | HOP-62 NSCLC | SR leukemia | CAKI-1 renal
> 100 µM: all other assays above

CCOC(=O)C(Cc1ccc([N+](=O)[O-])cc1)NC(=O)CC1c2ccccc2-c2ccccc21 (stereo unspecified)
38.9 µM: M19-MEL melanoma
41.6 µM: RXF 393 renal
57.9 µM: M14 melanoma
45.1 µM: ACHN renal
65.3 µM: SNB-78 CNS
77.4 µM: SF-539 CNS
68.8 µM: SNB-75 CNS
56.5 µM: HOP-92 NSCLC
53.6 µM: XF 498 CNS
42.3 µM: MALME-3M melanoma
91.5 µM: UACC-257 melanoma
not listed: SK-MEL-5 melanoma | OVCAR-5 ovarian | CAKI-1 renal
> 100 µM: all other assays above

Reference: PubChem BioAssay (NCI)
